Assay results: ChEMBL document CHEMBL3045109, “Inhibitory effect of bionic fungicide 2-allylphenol on Botrytis cinerea (Pers. ex Fr.) in vitro” (Pest Manag Sci, 2009)
≈ marks a conversion by molar mass, not a printed value. Calls of active or inactive are those of the source. The rule behind the calls is not given here.

Legend:
Botrytis cinerea [1] = test: Fungicidal activity against Botryotinia fuckeliana grown on PDA medium assessed as inhibition of mycelial growth incubated for 4 to 7 days at 25 degC in presence of 10 mg/L mitochondrial alternative oxidase inhibitor, SHAM; format: functional, organism-based
Botrytis cinerea [2] = test: Fungicidal activity against Botryotinia fuckeliana grown on YgA medium assessed as inhibition of mycelial growth incubated for 4 days in the dark at 25 degC in presence of fermentable carbon source, glucose; format: functional, organism-based; details: 96 h
Botrytis cinerea [3] = test: Fungicidal activity against Botryotinia fuckeliana grown on YGA medium assessed as inhibition of mycelial growth incubated for 4 days in the dark at 25 degC in presence of non-fermentable carbon source, glycerol; format: functional, organism-based; details: 96 h
Botrytis cinerea [4] = test: Depletion of ATP content in Botryotinia fuckeliana mycelium at 80 mg/L after 24 to 48 hr by reverse phase HPLC analysis; format: functional, organism-based
Botrytis cinerea [5] = test: Depletion of ATP content in Botryotinia fuckeliana mycelium at 80 mg/L after 6 hr by reverse phase HPLC analysis; format: functional
Botrytis cinerea [6] = test: Inhibition of respiratory activity in Botryotinia fuckeliana mycelium assessed as rate of oxygen consumption at 100 mg/L by Clark-type oxygen electrode recording analysis in presence of succinate and 2 mM mitochondrial alternative oxidase inhibitor, SHAM; format: functional
Botrytis cinerea [7] = test: Inhibition of respiratory activity in Botryotinia fuckeliana mycelium assessed as rate of oxygen consumption at 100 mg/L by Clark-type oxygen electrode recording analysis in presence of glucose and 2 mM mitochondrial alternative oxidase inhibitor, SHAM; format: functional
Botrytis cinerea [8] = test: Fungistatic activity against Botryotinia fuckeliana grown in liquid medium assessed as increase in mycelium dry weight at 80 mg/L incubated for 24 hr prior to transferring mycelium to drug-free MYS medium measured after 12 hr; format: functional
Botrytis cinerea [9] = test: Fungistatic activity against Botryotinia fuckeliana grown in liquid medium assessed as increase in mycelium dry weight at 80 mg/L incubated for 24 hr prior to transferring mycelium to drug-free MYS medium measured after 6 hr; format: functional
Botrytis cinerea [10] = test: Fungicidal activity against Botryotinia fuckeliana grown in liquid medium assessed as inhibition of mycelial growth at 80 mg/L after 12 hr; format: functional, organism-based
Botrytis cinerea [11] = test: Fungicidal activity against Botryotinia fuckeliana grown in liquid medium assessed as inhibition of mycelial growth after 24 hr; format: functional, organism-based
Botrytis cinerea [12] = test: Depletion of total adenylate pool in Botryotinia fuckeliana mycelium at 80 mg/L after 24 to 48 hr by reverse phase HPLC analysis; format: functional, organism-based
Botrytis cinerea [13] = test: Inhibition of respiratory activity in Botryotinia fuckeliana mycelium assessed as decrease in rate of oxygen consumption at 100 mg/L by Clark-type oxygen electrode recording analysis in presence of succinate (reference value: 0%); format: functional
Botrytis cinerea [14] = test: Inhibition of respiratory activity in Botryotinia fuckeliana mycelium assessed as decrease in rate of oxygen consumption at 100 mg/L by Clark-type oxygen electrode recording analysis in presence of glucose (reference value: 0%); format: functional
Botrytis cinerea [15] = test: Induction of respiratory activity in Botryotinia fuckeliana mycelium assessed as rate of oxygen consumption at 10 mg/L after 2 min by Clark-type oxygen electrode recording analysis; format: functional
Botrytis cinerea [16] = test: Inhibition of respiratory activity in Botryotinia fuckeliana mycelium assessed as rate of oxygen consumption at 100 mg/L after 2 min by Clark-type oxygen electrode recording analysis; format: functional
Botrytis cinerea [17] = test: Inhibition of respiratory activity in Botryotinia fuckeliana mycelium assessed as decrease in rate of oxygen consumption at 20 uM by Clark-type oxygen electrode recording analysis in presence of succinate and 2 mM mitochondrial alternative oxidase inhibitor, SHAM (reference value: 0%); format: functional
Botrytis cinerea [18] = test: Inhibition of respiratory activity in Botryotinia fuckeliana mycelium assessed as decrease in rate of oxygen consumption at 20 uM by Clark-type oxygen electrode recording analysis in presence of glucose and 2 mM mitochondrial alternative oxidase inhibitor, SHAM (reference value: 0%); format: functional
Botrytis cinerea [19] = test: Inhibition of respiratory activity in Botryotinia fuckeliana mycelium assessed as decrease in rate of oxygen consumption at 20 uM by Clark-type oxygen electrode recording analysis in presence of succinate (reference value: 0%); format: functional
Botrytis cinerea [20] = test: Inhibition of respiratory activity in Botryotinia fuckeliana mycelium assessed as decrease in rate of oxygen consumption at 20 uM by Clark-type oxygen electrode recording analysis in presence of glucose (reference value: 0%); format: functional
Botrytis cinerea [21] = test: Inhibition of respiratory activity in Botryotinia fuckeliana mycelium assessed as decrease in rate of oxygen consumption at 2 mM by Clark-type oxygen electrode recording analysis in presence of succinate (reference value: 0%); format: functional
Botrytis cinerea [22] = test: Inhibition of respiratory activity in Botryotinia fuckeliana mycelium assessed as decrease in rate of oxygen consumption at 2 mM by Clark-type oxygen electrode recording analysis in presence of glucose (reference value: 0%); format: functional

## C=CCc1ccccc1O [2-ALLYLPHENOL]
Botrytis cinerea [1]
  growth inhibition (GI): Active
Botrytis cinerea [2]
  EC50: 22.9 mg/L
Botrytis cinerea [3]
  EC50: 7.1 mg/L
Botrytis cinerea [4]
  inhibition: Active
Botrytis cinerea [5]
  inhibition at 80 µg/mL: 70%
Botrytis cinerea [6]
  inhibition (INH): 100%
Botrytis cinerea [7]
  inhibition (INH): 100%
Botrytis cinerea [8]
  fold change (FC): 1.7
Botrytis cinerea [9]
  fold change (FC): 0.9
Botrytis cinerea [10]
  inhibition: Active
Botrytis cinerea [11]
  EC50: 25.4 mg/L (≈ 189 µM)
Botrytis cinerea [12]
  inhibition: Active
Botrytis cinerea [13]
  inhibition at 100 µg/mL: 48%
Botrytis cinerea [14]
  inhibition at 100 µg/mL: 46%
Botrytis cinerea [15]
  Activity: 30%
Botrytis cinerea [16]
  inhibition at 100 µg/mL: 60%

## CCCCCC[C@H]1C(=O)O[C@H](C)[C@H](NC(=O)c2cccc(NC=O)c2O)C(=O)O[C@@H](C)[C@@H]1OC(=O)CC(C)C [ANTIMYCIN A]
Botrytis cinerea [17]
  inhibition (INH): 100%
Botrytis cinerea [18]
  inhibition (INH): 100%
Botrytis cinerea [19]
  inhibition at 20 µM: 55%
Botrytis cinerea [20]
  inhibition at 20 µM: 77%

## O=C(NO)c1ccccc1O [SALICYLHYDROXAMIC ACID]
Botrytis cinerea [21]
  inhibition at 2000 µM: 32%
Botrytis cinerea [22]
  inhibition at 2000 µM: 45%
